{
  "source": "patent US11034702B2",
  "about": "“Thienoisoquinolines and their derivatives for the treatment of cancer” (VALORBEC, SOCIÉTÉ EN COMMANDITE, priority 2016, dated 2021)",
  "key": {"[1]": {"test_system": "A549 (lung carcinoma) cells", "assay": "IC50 (viability) in A549 cells", "type": "cell-based", "conditions": "Homo sapiens", "procedure": "(§1) 19 variants with different structural modifications have been made. […] In particular, it is shown that C75 causes death in multiple cancer cells with IC50 values in the 100 nM range, including breast cancers (MCF7, BT549), lung cancer (A549), colorectal cancer (HCT116) in addition to HeLa cells (cervical cancer)."}, "[2]": {"test_system": "HeLa (cervical adenocarcinoma) cells", "assay": "IC50 (viability) in HeLa cells", "type": "cell-based, human", "procedure": "as §1"}, "A549 cells": {"test_system": "A549 cells", "assay": "Mitotic arrest (percentage of cells in mitosis) in A549 cells", "type": "cell-based, human", "conditions": "A549, within one population doubling time", "procedure": "FIG. 2A) is a line graph showing the percentage of HCT116 (p53−/−) cells, A549 cells, HeLa cells and H1299 cells in mitosis after treatment with various concentrations of C75 for one population doubling time. All of the cell lines show an increase in the proportion of mitotic cells after treatment with 200 nM C75. The bars indicate standard deviation. […] While the mitotic spindles were not dramatically altered by C75 in HFF1 cells, they were monopolar (as shown) or fragmented in the other cell types. […] The mitotic spindles were more strongly fragmented after C75 treatment in these cells vs. the cells in FIG. 2B). […] While mitotic spindles recovered bipolarity after removing nocodazole, they remained multipolar after removing C75. FIG. 2F) is a series of time-lapse images of a live HeLa cell expressing GFP:tubulin after treatment with C75 as shown in 2D) and 2E). The scale bar for all cells is 10 μm. FIG. 2G) is a schematic showing the putative target for C75. […]\nC75 was also tested for efficacy in different cancer cell lines. […] To further assess the role of C75 in affecting centrosomes, HeLa cells were treated with C75 for a short period of time (5 minutes), then C75 was removed and the cells were analyzed for spindle phenotypes (schematic in FIG. 2D). […]"}, "A549 spheroids": {"test_system": "A549 spheroids", "assay": "A549 multicellular tumour spheroids", "type": "cell-based, human", "procedure": "FIG. 5A) is a series of images of HeLa multicellular tumor spheroids (spheroids) treated with control (500 nM C87), empty nanoparticles, 500 nM C75 and 250 nM C75-loaded nanoparticles over 3 days. […] The scale bar for all images is 100 μm. FIG. 5B) is a series images of HeLa spheroids after three days of treatment with control (500 nM C87) or 500 nM C75. The spheroids were stained for fluorescein diacetate (to detect live cells) and propidium iodide (to detect dead cells). […] The scale bar for all images is 100 μm. FIG. 5C) is a series of images of HCT116 spheroids treated with control (1 μM C87), 500 nM C75, 1 μM C75 and 500 nM C75-loaded nanoparticles over 5 days. […] The borders of the spheroids treated with 1 μM C75 or with 500 nM C75-loaded nanoparticles became highly irregular, indicative of loss of spheroid integrity. FIG. 5D) is a series images of HCT116 spheroids after six days of treatment with control (1 μM C87) or 1 μM C75. The spheroids were stained for fluorescein diacetate (live cells) and propidium iodide (dead cells). […] FIG. 5E) is a line graph showing the growth in surface area (%) of HCT116 spheroids treated with control (1 μM C87), 500 nM C75 and 1 μM C75 after six days. FIG. 5F) is a series of images of A549 spheroids treated with control (750 nM C87), 500 nM C75, 1 μM C75 and 500 nM C75-loaded nanoparticles over 5 days. […] The scale bar for all images is 100 μm. […]"}},
  "data": [
    {"molecule": "COc1ccc(S(=O)(=O)N2Cc3ccccc3-c3sc(Br)cc32)cc1", "note": "[Compound C75]", "values": [
      {"measurement": "IC50", "setting": "[1]", "result": 109, "unit": "nM"},
      {"measurement": "IC50", "setting": "[2]; Homo sapiens, HeLa cells, cells printed in nM", "result": 27, "unit": "nM"},
      {"measurement": "efficacy (effect on viability) in cancer cells vs. non-cancer cells", "setting": "[2]; comparison of Table 3 IC50 values, cancer vs. non-cancer cells", "result": "higher efficacy"},
      {"measurement": "concentration causing mitotic arrest", "setting": "A549 cells", "result": "100 to 200", "unit": "nM"},
      {"measurement": "effect on growth of A549 spheroids", "setting": "A549 spheroids; 500 nM or 1 μM C75, 500 nM C75-loaded nanoparticles, over 5 days", "result": "regress the growth"},
      {"measurement": "live/dead staining of spheroids (fluorescein diacetate / propidium iodide)", "setting": "A549 spheroids; A549 spheroids, 1 μM, six days", "result": "fewer live cells"}
    ]}
  ]
}
